Test results reported in ChEMBL document CHEMBL4739717, “Methods of treating cartilage disorders through inhibition of clk and dyrk” (2020).
pEC50: −log10 of the molar value. The source made the active and inactive calls. The calls are words filed in the database; no cut-off is given here.

Experiments:
[1] = Effect on Wnt signaling pathway in human SW480 cells harbouring TCF/LEF luciferase reporter gene and SP5-Luc reporter gene incubated for 36 to 48 hrs by luminescence assay; format: cell-based
[2] = Induction of chondrogenesis in human MSC assessed as incubated for 6 days by rhodamine B and Nile red staining based imaging analysis; format: functional; settings: bmmsc
[3] = target: Dual specificity tyrosine-phosphorylation-regulated kinase 1A (Homo sapiens, UniProt Q13627); assay: Inhibition of recombinant DYRK1A (unknown origin) using Ser/Thr 18 peptide as substrate incubated for 1 hr in presence of ATP by FRET assay
[4] = Induction of chondrogenesis in human MSC assessed as maximum activity at 20.58 nM incubated for 6 days by rhodamine B and Nile red staining based imaging analysis relative to control; format: functional; settings: BMMSC, 144 h, time 6 day
[5] = Inhibition of IL1-beta induced MMP3 expression levels in human chondrocytes assessed as MMP3 levels incubated for 2hrs followed by IL1-beta stimulation and measured after overnight incubation by LANCE assay; format: functional, cell-based; settings: Chondrocyte
[6] = Induction of chondrogenesis in human MSC assessed as maximum activity at 100 nM incubated for 6 days by rhodamine B and Nile red staining based imaging analysis relative to control; format: functional; settings: BMMSC, 144 h, time 6 day
Chondrocyte [7] = assay: Inhibition of IL1-beta induced MMP3 expression levels in human chondrocytes assessed as MMP3 levels incubated for 2hrs followed by IL1-beta stimulation and measured after 24 hrs by qRT-PCR analysis; format: functional; settings: time 26.0 hrs
Chondrocyte [8] = assay: Inhibition of IL1-beta induced MMP1 expression levels in human chondrocytes assessed as MMP1 levels incubated for 2hrs followed by IL1-beta stimulation and measured after 24 hrs by qRT-PCR analysis; format: functional; settings: time 26.0 hrs
Chondrocyte [9] = assay: Inhibition of IL1-beta induced MMP-13 expression levels in human chondrocytes assessed as MMP-13 levels incubated for 2hrs followed by IL1-beta stimulation and measured after 24 hrs by qRT-PCR analysis; format: functional; settings: time 26.0 hrs
[10] = Induction of chondrogenesis in human MSC assessed as maximum activity at 10 nM incubated for 6 days by rhodamine B and Nile red staining based imaging analysis relative to control; format: functional; settings: BMMSC, 144 h, time 6 day
[11] = Induction of chondrogenesis in human MSC assessed as maximum activity at 2700 nM incubated for 6 days by rhodamine B and Nile red staining based imaging analysis relative to control; format: functional; settings: BMMSC, 144 h, time 6 day
[12] = target: Dual specificity protein kinase CLK2 (Homo sapiens, UniProt P49760); assay: Inhibition of recombinant CLK2 (unknown origin) using Ser/Thr 6 peptide as substrate incubated for 1 hr in presence of ATP by FRET assay
Sequence of Dual specificity protein kinase CLK2 (P49760 whole entry): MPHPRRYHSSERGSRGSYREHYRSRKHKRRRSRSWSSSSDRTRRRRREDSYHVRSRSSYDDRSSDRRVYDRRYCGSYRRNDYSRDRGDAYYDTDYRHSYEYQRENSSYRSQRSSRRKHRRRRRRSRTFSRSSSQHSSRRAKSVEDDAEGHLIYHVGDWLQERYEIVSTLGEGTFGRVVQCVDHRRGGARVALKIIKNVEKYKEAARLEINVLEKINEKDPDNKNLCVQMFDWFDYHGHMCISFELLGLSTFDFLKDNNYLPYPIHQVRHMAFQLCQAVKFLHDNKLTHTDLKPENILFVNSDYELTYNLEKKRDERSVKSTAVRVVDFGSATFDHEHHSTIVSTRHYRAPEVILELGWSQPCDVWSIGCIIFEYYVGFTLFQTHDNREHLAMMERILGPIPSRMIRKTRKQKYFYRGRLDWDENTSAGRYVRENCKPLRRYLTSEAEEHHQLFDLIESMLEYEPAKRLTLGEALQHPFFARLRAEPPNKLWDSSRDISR

[13] = target: Dual specificity protein kinase CLK3 (Homo sapiens, UniProt P49761); assay: Inhibition of recombinant CLK3 (unknown origin) using Ser/Thr 18 peptide as substrate incubated for 1 hr in presence of ATP by FRET assay
Sequence of Dual specificity protein kinase CLK3 (P49761 whole entry): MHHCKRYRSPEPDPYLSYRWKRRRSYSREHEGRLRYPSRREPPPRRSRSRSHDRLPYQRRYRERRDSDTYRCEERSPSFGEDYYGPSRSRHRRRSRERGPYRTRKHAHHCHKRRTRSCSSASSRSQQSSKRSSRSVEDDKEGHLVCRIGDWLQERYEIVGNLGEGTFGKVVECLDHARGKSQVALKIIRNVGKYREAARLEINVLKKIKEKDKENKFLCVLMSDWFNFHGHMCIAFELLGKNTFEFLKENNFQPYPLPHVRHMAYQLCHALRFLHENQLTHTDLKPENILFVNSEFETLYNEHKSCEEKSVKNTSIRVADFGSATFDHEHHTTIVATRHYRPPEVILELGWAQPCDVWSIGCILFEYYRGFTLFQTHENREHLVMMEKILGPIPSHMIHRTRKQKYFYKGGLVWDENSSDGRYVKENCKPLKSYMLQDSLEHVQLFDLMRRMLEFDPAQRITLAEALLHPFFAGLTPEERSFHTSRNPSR

[14] = Inhibition of IL1-beta induced MMP3 expression levels in human chondrocytes assessed as MMP3 levels incubated for 2hrs followed by IL1-beta stimulation and measured after overnight incubation by LANCE assay relative to control; format: functional, Chondrocyte

pEC50 [1]	pEC50 [2]	pEC50 [3]	pEC50 [5]	pEC50 [12]	pEC50 [13]	Structure (SMILES)	Emax at 0.02058 µM [4] [%]	Emax at 0.1 µM [6] [%]	Activity (Chondrocyte [7])	Activity (Chondrocyte [8])	Activity (Chondrocyte [9])	Emax at 0.01 µM [10] [%]	Emax at 2.7 µM [11] [%]	Imax [14] [%]
5.44	7.69	7.34				CCCC(=O)Nc1cncc(-c2ccc3[nH]nc(-c4nc5c(-c6ccsc6)cncc5[nH]4)c3n2)c1	58.4							
< 5.00	7.69	7.51				Oc1cncc(-c2ccc3[nH]nc(-c4nc5c(-c6cccc(F)c6)cncc5[nH]4)c3n2)c1	53.6							
6.62		9.00	5.52			Cn1cc(-c2cc3c(C(=O)Nc4ccc(CN5CCCC5)cc4)n[nH]c3cc2F)cn1		27.4	inactive	inactive				
6.49		8.00	5.52			CN1CCN(c2nccc3[nH]c(-c4n[nH]cc4/C=C/c4cncc(F)c4)nc23)CC1			inactive		inactive	39		
7.09	5.57	7.70	8.85			Fc1cccc(-c2cccc3[nH]c(-c4n[nH]cc4/C=C/c4cncc(CN5CCCC5)c4)nc23)c1			inactive	inactive			81.7	
8.02	5.57		5.52	9.00	7.96	O=C(Nc1cc2cc(-c3cncc(N[C@H]4CCNC[C@@H]4F)n3)ccc2cn1)C1CC1							68	
6.55	7.52	9.00	5.00			CN1CCN(c2cc(Nc3ncc4c(-c5ccc6ncccc6c5)c[nH]c4n3)ccn2)CC1			inactive		inactive	73.4		
7.04	5.57	8.40	8.82			CC(C)Oc1cncc(C(=O)Nc2c[nH]nc2C(=O)Nc2ccc(OC3CCN(C)CC3)nc2)c1							140	
< 5.00	7.00	8.70	5.94			Cc1cn(-c2cncc3[nH]c(-c4n[nH]c5ccc(-c6cncc(NC(=O)C(C)(C)C)c6)nc45)nc23)cn1							150	
6.55	7.52	8.70	8.17			O=C(Nc1cncc(-c2ccc3[nH]nc(-c4cc5cnccc5[nH]4)c3c2)c1)C1CCCCC1							155	100
6.47	8.00	8.40	5.42			CN1CCCn2cc(nn2)-c2nccc3[nH]c(nc23)-c2n[nH]c3ccc(cc23)-c2cncc(c2)C1			inactive		inactive	181		
< 5.00		7.05				CCC(=O)Nc1cncc(-c2ccc3[nH]nc(-c4nc5c(N6CCCCC6)ccnc5[nH]4)c3n2)c1	38.3							
						CN1CCN(c2cc(C(=O)Nc3cc4cc(-c5cnn(C)c5)ccc4cn3)ccn2)CC1					inactive	27.1		
6.43	8.64	7.37				Oc1cncc(-c2ccc3[nH]nc(-c4nc5c(-c6cccc(F)c6)ccnc5[nH]4)c3n2)c1	59.3							
< 5.00	7.69	8.10				CCNCc1cncc(-c2ccc3[nH]nc(-c4nc5c(-c6cc(F)cc(NCCN(C)C)c6)ccnc5[nH]4)c3n2)c1	149							
< 5.00	7.69	7.80			< 5.00	Fc1cccc(-c2cncc3[nH]c(-c4n[nH]c5ccc(-c6cn[nH]c6)nc45)nc23)c1	51.8							
6.92	7.69	7.34				COc1cncc(-c2ccc3[nH]nc(-c4nc5c(-c6cccc(F)c6)nccc5[nH]4)c3n2)c1	60.4							
6.20		8.22		9.00	5.89	Cc1n[nH]c2cc(F)c(-c3cncc(O[C@H]4CCNC[C@@H]4F)n3)cc12				inactive	inactive			
